Reference: patent publication US20230226062A1, “HETEROCYCLIC COMPOUNDS AS IMMUNOMODULATORS” (Incyte Corporation, priority 2016, published 2023)

Target: T1, PD-1/PD-L1 (Homo sapiens, UniProt Q9NZQ7)
T1 construct: Recombinant human PD-L1 protein (19-238) with a His-tag at the C-terminus; purchased AcroBiosystems PD1-H5229 (PD-L1); PD1-H5257 (PD-1)
Assay: PD-1/PD-L1 Homogeneous Time-Resolved Fluorescence (HTRF) binding assay
Settings: recombinant human PD-L1 (19-238)-His 10 nM, human PD-1 (25-167)-Fc 3 nM, 25° C., PBS pH 7.4
Protocol: Example A. PD-1/PD-L1 Homogeneous Time-Resolved Fluorescence (HTRF) Binding Assay
The assays were conducted in a standard black 384-well polystyrene plate with a final volume of 20 μL. Inhibitors were first serially diluted in DMSO and then added to the plate wells before the addition of other reaction components. The final concentration of DMSO in the assay was 1%. The assays were carried out at 25° C. in the PBS buffer (pH 7.4) with 0.05% Tween-20 and 0.1% BSA. Recombinant human PD-L1 protein (19-238) with a His-tag at the C-terminus was purchased from AcroBiosystems (PD1-H5229). Recombinant human PD-1 protein (25-167) with Fc tag at the C-terminus was also purchased from AcroBiosystems (PD1-H5257). PD-L1 and PD-1 proteins were diluted in the assay buffer and 10 μL was added to the plate well. Plates were centrifuged and proteins were preincubated with inhibitors for 40 minutes. The incubation was followed by the addition of 10 μL of HTRF detection buffer supplemented with Europium cryptate-labeled anti-human IgG (PerkinElmer-AD0212) specific for Fc and anti-His antibody conjugated to SureLight®-Allophycocyanin (APC, PerkinElmer-AD0059H). After centrifugation, the plate was incubated at 25° C. for 60 min. before reading on a PHERAstar FS plate reader (665 nm/620 nm ratio). Final concentrations in the assay were—3 nM PD1, 10 nM PD-L1, 1 nM europium anti-human IgG and 20 nM anti-His-Allophycocyanin. IC50 determination was performed by fitting the curve of percent control activity versus the log of the inhibitor concentration using the GraphPad Prism 5.0 software.

T1 sequence (Q9NZQ7 19-238): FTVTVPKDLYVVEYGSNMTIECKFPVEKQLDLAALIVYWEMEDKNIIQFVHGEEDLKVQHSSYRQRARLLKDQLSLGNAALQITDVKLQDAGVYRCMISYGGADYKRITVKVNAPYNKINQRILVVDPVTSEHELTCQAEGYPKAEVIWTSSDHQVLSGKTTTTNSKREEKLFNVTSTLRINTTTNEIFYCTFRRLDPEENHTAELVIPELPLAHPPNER

| SMILES | IC50 |
| --- | --- |
| Cc1c(Nc2ccc3c(c2)CCNC3)cccc1-c1ccccc1 [Example 15, N-(2-methylbiphenyl-3-yl)-1,2,3,4-tetrahydroisoquinolin-6-amine] | 100 to 1000 nM |
| Cc1c(NC(=O)c2cccn3c(CN4CCCC[C@H]4C(=O)O)cnc23)cccc1-c1ccccc1 [Example 11, (S)-1-((8-(2-methylbiphenyl-3-ylcarbamoyl)imidazo[1,2-a]pyridin-3-yl)methyl)piperidine-2-carboxylic acid] | 100 to 1000 nM |
